Molecular target: TRPC6 (Homo sapiens (Human), UniProt Q9Y210)
Experiment: High throughput screening assay: fluorescent calcium (Fluo4/AM) assay of TRPC6 channel activation by GSK1702934A in HEK293/TREx cells
Format: cell-based
Conditions: HEK293/TREx cells stably transfected with TRPC6; agonist GSK1702934A; 7 concentrations 20 μM to 0.027 μM, triplicate
Text: This screening assay measures TRPC6 (transient receptor potential cation channel, subfamily C, member 6) ion channel activation via addition either of the commercially available DAG ligand analogue OAG (1-oleoyl-2-acetyl-sn-glycerol) or of the TRPC6 agonist 1-[1-(4,5,6,7,8-pentahydrocyclohepta[2,1-d]thiophen-2-ylcarbonyl)-4-piperidyl]-3-hydrobenzimidazol-2-one (GSK1702934A). The assay utilizes a FLIPR fluorescent calcium sensor 4-(6-Acetoxymethoxy-2,7-difluoro-3-oxo-9-xanthenyl)-4′-methyl-2,2′-(ethylenedioxy)dianiline-N,N,N′,N′-tetraacetic acid tetrakis(acetoxymethyl) ester (Fluo4/AM) […]. Changes (increases) in intracellular membrane calcium concentration potential as measured by the fluorescent signal increase during membrane depolarization provide a measurement of channel activity.
The commercially available HEK293/TREx line (Invitrogen) was stably transfected with a TRPC6 construct and screened by conventional calcium imaging to find clones with TRPC6 expression following stimulation with 1 μg/ml tetracycline. These cells were maintained in the growth medium recommended by the manufacturer supplemented with 100 μg/ml hygromycin to promote retention of the TRPC6 construct. After growing to near confluency, cells were plated at a density of ^˜35,000 cells/well in 384 well CellBind plates (Corning) in the presence of 1 μg/ml tetracycline, and allowed to grow for 20-30 hrs. A nearly confluent monolayer resulted. Growth media was removed from the wells and cells were then loaded with […] Fluo4/AM diluted in Ringer's Solution (6.5 g NaCl, 0.42 g KCl, 0.25 g CaCl2) and 0.2 g of sodium bicarbonate; pH 7.4) supplemented with 1% Pluronic F-127 to a final concentration of 0.5 μM and incubated for 60 min, at room temperature. Dye solution was then removed from the cells by inverting plates with a sharp flick, and replaced with 25 μl Ringer's. Following ^˜0.5 hour for recovery from loading, cells were assayed using the Hamamatsu FDSS 6000 system, which permitted illumination at 485 nm. Frames were acquired at a rate of 0.2 Hz. During the assay, the plates were continuously vortexed, with pipette mixing of wells following addition of each reagent. For the screening assay, 26 μl of a diluted compound stock (at 50 μM) was added to each well for 2 minutes following the collection of a short (4 frame) baseline. 13 μl of agonist solution consisting of 125 nM GSK1702934A diluted in high-Ca2+Ringer solution (containing 90 mm Ca2+) was then added to each well, achieving a final concentration of 20 mm Ca2+ and 10 μM test compound. Data was collected for ^˜3 minutes following addition of high Ca2+Ringer. The fluorescent ratio for each well was divided by the initial fluorescent intensity for that well and the overall response was determined by averaging the fluorescent ratio of the last 4 frames acquired during the experiment excepting the final frame. Negative and Positive controls were included on each plate. Negative controls wells consisted of HEK293/TREx TRPC6 cells exposed to assay buffer and agonist solution, but no test compound. Positive control consisted of wells consisted of HEK293/TREx TRPC6 cells exposed to 25 μM 3-[(2-chlorophenoxy)methyl]phenyl piperidyl ketone (Chembridge) diluted in Ringer's solution and agonist solution. These controls defined zero percent and 100 percent block respectively, and intensity of each well was normalized to these values.
Compounds were tested in triplicate at all concentrations. Standard software was used to fit IC50 curves.

Sequence of TRPC6 (Q9Y210 whole entry, species assumed): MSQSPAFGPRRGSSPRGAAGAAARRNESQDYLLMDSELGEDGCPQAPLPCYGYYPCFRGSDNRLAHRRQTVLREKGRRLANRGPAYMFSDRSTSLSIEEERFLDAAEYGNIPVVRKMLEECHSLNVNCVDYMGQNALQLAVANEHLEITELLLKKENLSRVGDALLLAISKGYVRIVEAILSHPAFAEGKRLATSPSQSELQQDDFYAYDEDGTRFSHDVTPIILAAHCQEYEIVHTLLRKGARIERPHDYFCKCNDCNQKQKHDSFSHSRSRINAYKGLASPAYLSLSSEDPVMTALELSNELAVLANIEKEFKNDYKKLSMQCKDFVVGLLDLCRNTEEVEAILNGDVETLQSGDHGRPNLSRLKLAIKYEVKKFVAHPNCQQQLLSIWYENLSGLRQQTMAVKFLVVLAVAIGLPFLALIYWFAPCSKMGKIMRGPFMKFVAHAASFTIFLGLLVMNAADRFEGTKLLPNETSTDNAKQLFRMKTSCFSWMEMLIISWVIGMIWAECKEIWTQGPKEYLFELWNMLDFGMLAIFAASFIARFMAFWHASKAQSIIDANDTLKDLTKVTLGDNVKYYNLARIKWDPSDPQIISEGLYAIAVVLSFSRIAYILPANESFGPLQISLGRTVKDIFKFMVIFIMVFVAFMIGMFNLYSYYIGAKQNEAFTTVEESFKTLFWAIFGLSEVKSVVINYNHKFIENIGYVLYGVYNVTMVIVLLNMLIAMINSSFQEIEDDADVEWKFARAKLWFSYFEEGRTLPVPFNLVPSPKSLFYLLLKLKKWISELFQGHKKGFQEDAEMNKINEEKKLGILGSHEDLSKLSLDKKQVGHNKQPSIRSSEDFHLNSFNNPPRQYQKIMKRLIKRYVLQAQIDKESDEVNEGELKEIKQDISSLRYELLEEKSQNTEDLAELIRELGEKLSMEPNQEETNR

IC50 [µM] | Structure (SMILES)
0.343 | COc1cc(C(=O)N2CCC(c3cnc(N)cc3OC)CC2)ncc1OCC(C)C(F)(F)F (single isomer, unassigned) [Compound 94a, 4-Methoxy-5-(1-{4-methoxy-5-[3,3,3-trifluoro-2-methylpropoxy]pyridine-2-carbonyl}piperidin-4-yl)-pyridin-2-amine]
0.351 | COc1cc(C(=O)N2CCC(c3cnc(N)cc3OC)CC2)ncc1OCC(C)C(F)(F)F (single isomer, unassigned) [Compound 94b, 4-Methoxy-5-(1-{4-methoxy-5-[3,3,3-trifluoro-2-methylpropoxy]pyridine-2-carbonyl}piperidin-4-yl)-pyridin-2-amine]
< 0.027 | COc1cc(C(=O)N2CCN(c3cnc(N)cc3OC)CC2)ncc1Oc1ccc(F)cc1 [Compound 1, 5-{4-[5-(4-Fluorophenoxy)-4-methoxypyridine-2-carbonyl]piperazin-1-yl}-4-methoxypyridin-2-amine]
< 0.027 | COc1cc(C(=O)N2CCC(c3cnc(N)cc3C)CC2)ncc1Oc1ccc(F)cc1 [Compound 2, (6-Amino-4-methyl-3′,4′,5′,6′-tetrahydro-2′H-[3,4′]bipyridinyl-1′-yl)-[5-(4-fluoro-phenoxy)-4-methoxy-pyridin-2-yl]-methanone]
< 0.027 | COc1cc(C(=O)N2CCC(c3ccc(N)nc3)CC2)ncc1Oc1ccccc1 [Compound 3, (6-Amino-3′,4′,5′,6′-tetrahydro-2′H-[3,4′]bipyridinyl-1′-yl)-(4-methoxy-5-phenoxy-pyridin-2-yl)-methanone]
< 0.027 | COc1cc(C(=O)N2CCC(c3cnc(N)cc3OC)CC2)ncc1Oc1ccc(F)cc1 [Compound 4, (6-Amino-4-methoxy-3′,4′,5′,6′-tetrahydro-2′H-[3,4′]bipyridinyl-1′-yl)-[5-(4-fluoro-phenoxy)-4-methoxy-pyridin-2-yl]methanone]
0.027 | COc1cc(C(=O)N2CCN(c3cnc(N)cc3OC)CC2)ncc1Oc1ccccc1 [Compound 5, [4-(6-Amino-4-methoxy-pyridin-3-yl)-piperazin-1-yl]-(4-methoxy-5-phenoxy-pyridin-2-yl)-methanone]
0.027 | COc1cc(C(=O)N2CCC(c3ccc(N)nn3)CC2)ncc1Oc1ccc(OC(C)C)cc1 [Compound 6, [4-(6-Amino-pyridazin-3-yl)-piperidin-1-yl]-[5-(4-isopropoxy-phenoxy)-4-methoxy-pyridin-2-yl]-methanone]
0.027 | COc1cc(C(=O)N2CCN(c3cnc(N)cc3C)C[C@@H]2CO)ncc1Oc1ccc(F)cc1 [Compound 7, [(R)-4-(6-Amino-4-methyl-pyridin-3-yl)-2-hydroxymethyl-piperazin-1-yl]-[5-(4-fluoro-phenoxy)-4-methoxy-pyridin-2-yl]-methanone]
0.027 | COc1cc(C(=O)N2CCN(c3cnc(N)cc3OC)CC23CC3)ncc1Oc1ccccc1 [Compound 8, [7-(6-Amino-4-methoxy-pyridin-3-yl)-4,7-diaza-spiro[2.5]oct-4-yl]-(4-methoxy-5-phenoxy-pyridin-2-yl)-methanone]
0.027 | COc1cc(C(=O)N2CCN(c3cnc(N)cc3OC)CC23CC3)ncc1Oc1ccc(F)cc1 [Compound 9, [7-(6-Amino-4-methoxy-pyridin-3-yl)-4,7-diaza-spiro[2.5]oct-4-yl]-[5-(4-fluoro-phenoxy)-4-methoxy-pyridin-2-yl]-methanone]
0.027 | COc1cc(C(=O)N2CCC(c3cnc(N)cc3C)CC2)ncc1Oc1ccccc1 [Compound 10, (6-Amino-4-methyl-3′,4′,5′,6′-tetrahydro-2′H-[3,4′]bipyridinyl-1′-yl)-(4-methoxy-5-phenoxy-pyridin-2-yl)-methanone]
0.027 | COc1cc(C(=O)N2CCC(c3cc(OC)c(N)nn3)CC2)ncc1Oc1ccc(F)cc1 [Compound 11, [4-(6-Amino-5-methoxy-pyridazin-3-yl)-piperidin-1-yl]-[5-(4-fluoro-phenoxy)-4-methoxy-pyridin-2-yl]-methanone]
0.027 | COc1ccc(Oc2cnc(C(=O)N3CCN(c4ccc(N)nc4)CC3)cc2OC)cc1 [Compound 12, [4-(6-Amino-pyridin-3-yl)-piperazin-1-yl]-[4-methoxy-5-(4-methoxy-phenoxy)-pyridin-2-yl]-methanone]
0.027 | COc1cc(C(=O)N2CCN(c3ccc(N)nc3)CC2)ncc1Oc1ccc(F)cc1 [Compound 13, [4-(6-Amino-pyridin-3-yl)-piperazin-1-yl]-[5-(4-fluoro-phenoxy)-4-methoxy-pyridin-2-yl]-methanone]
0.027 | COc1cc(C(=O)N2CCC(c3ccc(N)nc3)CC2)ncc1Oc1ccc(F)cc1 [Compound 14, (6-Amino-3′,4′,5′,6′-tetrahydro-2′H-[3,4′]bipyridinyl-1′-yl)-[5-(4-fluoro-phenoxy)-4-methoxy-pyridin-2-yl]-methanone]
0.027 | COc1cc(C(=O)N2CCN(c3ccc(N)nc3)CC2)ncc1Oc1ccccc1 [Compound 15, [4-(6-Amino-pyridin-3-yl)-piperazin-1-yl]-(4-methoxy-5-phenoxy-pyridin-2-yl)-methanone]
0.027 | COc1cc(C(=O)N2CCC(c3ccc(N)nn3)CC2)ncc1Oc1ccccc1 [Compound 16, [4-(6-Amino-pyridazin-3-yl)-piperidin-1-yl]-(4-methoxy-5-phenoxy-pyridin-2-yl)-methanone]
0.029 | COc1cc(C(=O)N2CCC(c3ccc(N)nn3)CC2)ncc1Oc1ccc(F)cc1 [Compound 17, 6-{1-[5-(4-Fluorophenoxy)-4-methoxypyridine-2-carbonyl]piperidin-4-yl}pyridazin-3-amine]
0.031 | COc1cc(C(=O)N2CCN(c3cnc(N)cc3C)C[C@@H]2CO)ncc1Oc1ccccc1 [Compound 18, [(R)-4-(6-Amino-4-methyl-pyridin-3-yl)-2-hydroxymethyl-piperazin-1-yl]-(4-methoxy-5-phenoxy-pyridin-2-yl)-methanone]
0.032 | COc1cc(C(=O)N2CCC(c3cnc(N)cc3OC)CC2)ncc1OCc1ccccc1F [Compound 19, (6-Amino-4-methoxy-3′,4′,5′,6′-tetrahydro-2′H-[3,4′]bipyridinyl-1′-yl)-[5-(2-fluoro-benzyloxy)-4-methoxy-pyridin-2-yl]-methanone]
0.042 | COc1cc(C(=O)N2CCN(c3ccc(N)nc3)C[C@@H]2CO)ncc1Oc1ccc(F)cc1 [Compound 20, [(R)-4-(6-Amino-pyridin-3-yl)-2-hydroxymethyl-piperazin-1-yl]-[5-(4-fluoro-phenoxy)-4-methoxy-pyridin-2-yl]-methanone]
0.043 | COc1cc(C(=O)N2CCC(c3cc(OC)c(N)nn3)CC2)ncc1Oc1ccccc1 [Compound 21, [4-(6-Amino-5-methoxy-pyridazin-3-yl)-piperidin-1-yl]-(4-methoxy-5-phenoxy-pyridin-2-yl)-methanone]
0.046 | COc1ccc(Oc2cnc(C(=O)N3CCC(c4ccc(N)nc4)CC3)cc2OC)cc1 [Compound 22, (6-Amino-3′,4′,5′,6′-tetrahydro-2′H-[3,4′]bipyridinyl-1′-yl)-[4-methoxy-5-(4-methoxy-phenoxy)-pyridin-2-yl]-methanone]
0.054 | COc1cc(C(=O)N2CCC(c3cnc(N)cc3OC)CC2)ncc1Oc1ccccc1 [Compound 23, (6-Amino-4-methoxy-3′,4′,5′,6′-tetrahydro-2′H-[3,4′]bipyridinyl-1′-yl)-(4-methoxy-5-phenoxy-pyridin-2-yl)-methanone]

Reference: US10800757B2, “Inhibitors of TRPC6” (Boehringer Ingelheim International GmbH, priority 2017, dated 2020)
